Values quoted from earlier work as cited in patent US6054466A, “Inhibitors of farnesyl-protein transferase” (Merck & Co., Inc., priority 1998, dated 2000).

Assays:
[1] = tested on: farnesyl-protein transferase; conditions: via HMG-CoA reductase inhibition
Ras processing = conditions: by inhibiting the rate-limiting step in the isoprenoid biosynthetic pathway

Structure (SMILES) | Indirect inhibition of farnesyl-protein transferase in vivo [1] | Block of Ras processing in cells (Ras processing)
CC[C@H](C)C(=O)O[C@H]1CCC=C2C=C[C@H](C)[C@H](CC[C@@H]3C[C@@H](O)CC(=O)O3)[C@H]21 [compactin] | Indirect inhibition | –
CC[C@H](C)C(=O)O[C@H]1C[C@@H](C)C=C2C=C[C@H](C)[C@H](CC[C@@H]3C[C@@H](O)CC(=O)O3)[C@H]21 [lovastatin] | Indirect inhibition | blocks Ras processing in cells
